Experimental findings from US12441762B2, “Hepatitis c virus NS3/4A protease inhibitors” (priority 2019, dated 2025) are described below.

Test in all cases: biochemical
Assay [1] has as its system HCV NS3/4A protease D168A variant. Format: biochemical, Hepatitis C virus. Conditions: Table S1, value in parentheses. Put shortly: (§1)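 Inhibitors pre-incubated 1 h at room temperature with 2 nM NS3/4A protease (GT1a C159S or D168A) in 50 mM Tris, 5% glycerol, 10 mM DTT, 0.6 mM LDAO, 4% DMSO, pH 7.5. Km from global Michaelis-Menten fit of inner-filter-corrected initial velocities; three independent data sets per inhibitor and construct.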

Assay [2] deals with T1, HCV NS3/4A protease D168A variant (Hepatitis C virus genotype 1a, UniProt P27958, C1185S/D1194A).
T1 construct: His-tag (cleaved yes); made in house; host or cells: Escherichia coli BL21(DE3), PET28a vector
T1 sequence (P27958 1027-1208 C1185S/D1194A): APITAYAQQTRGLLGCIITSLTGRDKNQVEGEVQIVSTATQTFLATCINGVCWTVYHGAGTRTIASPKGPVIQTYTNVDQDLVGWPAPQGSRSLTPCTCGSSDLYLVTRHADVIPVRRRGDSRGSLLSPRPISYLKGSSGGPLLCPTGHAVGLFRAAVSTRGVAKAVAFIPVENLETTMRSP
The class given is biochemical. The procedure, abridged:
as §1

The target in assay [3] is T2, wild-type HCV NS3/4A protease (GT1a) (Hepatitis C virus genotype 1a, UniProt P27958, C1185S).
T2 construct: His-tag (cleaved yes); made in house; host or cells: Escherichia coli BL21(DE3), PET28a vector
T2 sequence (P27958 1027-1208 C1185S): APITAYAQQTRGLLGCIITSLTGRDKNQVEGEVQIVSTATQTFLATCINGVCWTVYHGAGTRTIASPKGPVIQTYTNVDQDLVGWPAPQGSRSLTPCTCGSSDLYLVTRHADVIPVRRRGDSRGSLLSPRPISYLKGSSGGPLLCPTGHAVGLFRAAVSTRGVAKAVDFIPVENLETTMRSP
Format: biochemical. The procedure, abridged: as §1

The target in another assay is HCV NS3/4A protease GT3 (Hepatitis C virus genotype 3a, UniProt Q81495).
HCV NS3/4A protease GT3, sequence (Q81495 1033-1214): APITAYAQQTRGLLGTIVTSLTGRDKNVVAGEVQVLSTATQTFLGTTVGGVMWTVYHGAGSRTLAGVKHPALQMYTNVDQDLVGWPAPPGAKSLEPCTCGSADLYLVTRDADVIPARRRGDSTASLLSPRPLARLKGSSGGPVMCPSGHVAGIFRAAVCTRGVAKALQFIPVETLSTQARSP
HCV NS3/4A protease GT3, sequence (Q81495 1664-1717): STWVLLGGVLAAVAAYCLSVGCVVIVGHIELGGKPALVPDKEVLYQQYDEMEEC

SMILES strings stand for the structures. Where two headings read alike, the source gives them in different places.

As a reminder, the Ki is the dissociation constant of the complex between target and ligand, obtained from inhibition or displacement.

Regarding `COc1ccc2nc(C)c(O[C@@H]3C[C@H]4C(=O)N[C@]5(C(=O)NS(=O)(=O)C6(C)CC6)C[C@H]5/C=C\CCCCC[C@H](NC(=O)OC5(C)CCCC5)C(=O)N4C3)nc2c1` [JZ01-19], the “Fold Change of D168A Ki with respect to GT1a wild-type” value (“Fold Change of D168A Ki” below) in assay [1] (listed as P4-3) is “(32) fold”. For the same compound, the inhibition constant (Ki) came to 36 ± 1.8 nM in assay [2] (Table 2, read-out: Ki D168A); 36 ± 1.8 nM in assay [2] (Table S1, Morrison equation fit, read-out: Ki D168A); 1.13 ± 0.22 nM in assay [3] (Table 2, read-out: Ki WT (GT1a)); 1.13 ± 0.22 nM in assay [3] (Table S1, Morrison equation fit, read-out: Ki GT1a WT); 121 ± 16 nM at HCV NS3/4A protease GT3 (Table 2, read-out: Ki GT3). For the same compound, the “fold increase in potency against D168A compared to the parent compound” value in assay [2] is recorded as around 3 fold.

As for `COc1ccc2nc(C)c(O[C@@H]3C[C@H]4C(=O)N[C@]5(C(=O)NS(=O)(=O)C6(C)CC6)C[C@H]5/C=C\CCCCC[C@H](NC(=O)OC5CCCCC5)C(=O)N4C3)nc2c1` [NR03-67, Cyclohexyl ((2R,6S,13aS,14aR,16aS,Z)-2-((7-methoxy-3-methylquinoxalin-2-yl)oxy)-14a-(((1-methylcyclopropyl)sulfonyl)carbamoyl)-5,16-dioxo-1,2,3,5,6,7,8,9,10,11,13a,14,14a,15,16,16a-hexadecahydrocyclopropa[e]pyrrolo[1,2-a][1,4]diazacyclopentadecin-6-yl)carbamate], the “Fold Change of D168A Ki” value in assay [1] was “(14) fold”. In addition, the figures for the inhibition constant Ki (in assay [2]; in assay [3]; on HCV NS3/4A protease GT3) were 12.7 ± 1.2 nM, 0.94 ± 0.25 nM and 145 ± 7 nM, respectively. Also, the “fold increase in potency against D168A compared to the parent compound” value in assay [2] is around 3 fold.

As to `COc1ccc2nc(C(F)(F)F)c(O[C@@H]3C[C@H]4C(=O)N[C@]5(C(=O)NS(=O)(=O)C6(C)CC6)C[C@H]5/C=C\CCCCC[C@H](NC(=O)OC5CC5)C(=O)N4C3)nc2c1` [NR02-46, Cyclopropyl ((2R,6S,13aS,14aR,16aS,Z)-2-((7-methoxy-3-(trifluoromethyl)quinoxalin-2-yl)oxy)-14a-(((1-methylcyclopropyl)sulfonyl)carbamoyl)-5,16-dioxo-1,2,3,5,6,7,8,9,10,11,13a,14,14a,15,16,16a-hexadecahydrocyclopropa[e]pyrrolo[1,2-a][1,4]diazacyclopentadecin-6-yl)carbamate], the results for the Ki (in assay [2]; in assay [3]; on HCV NS3/4A protease GT3) were 67.5 ± 3.9 nM, 13.6 ± 0.9 nM and 522 ± 25 nM, respectively.

Regarding `COc1ccc2nc(C(F)(F)F)c(O[C@@H]3C[C@H]4C(=O)N[C@]5(C(=O)NS(=O)(=O)C6(C)CC6)C[C@H]5/C=C\CCCCC[C@H](NC(=O)O[C@@H](C)C5CC5)C(=O)N4C3)nc2c1` [NR02-33, (S)-1-Cyclopropylethyl ((2R,6S,13aS,14aR,16aS,Z)-2-((7-methoxy-3-(trifluoromethyl)quinoxalin-2-yl)oxy)-14a-(((1-methylcyclopropyl)sulfonyl)carbamoyl)-5,16-dioxo-1,2,3,5,6,7,8,9,10,11,13a,14,14a,15,16,16a-hexadecahydrocyclopropa[e]pyrrolo[1,2-a][1,4]diazacyclopentadecin-6-yl)carbamate], the inhibition constant (Ki) in assay [2] stood at 54.4 ± 3.7 nM; in assay [3] it was 10.4 ± 0.94 nM; at HCV NS3/4A protease GT3, 412 ± 21 nM.

Turning to `COc1ccc2nc(C(F)(F)F)c(O[C@@H]3C[C@H]4C(=O)N[C@]5(C(=O)NS(=O)(=O)C6(C)CC6)C[C@H]5/C=C\CCCCC[C@H](NC(=O)OC5(C)CCCC5)C(=O)N4C3)nc2c1` [NR02-15, 1-Methylcyclopentyl ((2R,6S,13aS,14aR,16aS,Z)-2-((7-methoxy-3-(trifluoromethyl)quinoxalin-2-yl)oxy)-14a-(((1-methylcyclopropyl)sulfonyl)carbamoyl)-5,16-dioxo-1,2,3,5,6,7,8,9,10,11,13a,14,14a,15,16,16a-hexadecahydrocyclopropa[e]pyrrolo[1,2-a][1,4]diazacyclopentadecin-6-yl)carbamate], the Ki in assay [2] turned out to be 11.8 ± 1.8 nM; in assay [3], 0.9 ± 0.1 nM; on HCV NS3/4A protease GT3, 161 ± 13 nM.

Take `COc1ccc2nc(C)c(O[C@@H]3C[C@H]4C(=O)N[C@]5(C(=O)NS(=O)(=O)C6(C)CC6)C[C@H]5/C=C\CCCCC[C@H](NC(=O)O[C@@H]5CCC[C@H]5F)C(=O)N4C3)nc2c1` [NR02-08, (1R,2R)-2-Fluorocyclopentyl ((2R,6S,13aS,14aR,16aS,Z)-2-((7-methoxy-3-methylquinoxalin-2-yl)oxy)-14a-(((1-methylcyclopropyl)sulfonyl)carbamoyl)-5,16-dioxo-1,2,3,5,6,7,8,9,10,11,13a,14,14a,15,16,16a-hexadecahydrocyclopropa[e]pyrrolo [1,2-a][1,4]diazacyclopentadecin-6-yl)carbamate]: the Ki in assay [2] worked out at 16 ± 1 nM; in assay [3] it was 2.3 ± 0.2 nM; on HCV NS3/4A protease GT3, 216 ± 32 nM.

For `COc1ccc2nc(C)c(O[C@@H]3C[C@H]4C(=O)N[C@]5(C(=O)NS(=O)(=O)C6(C)CC6)C[C@H]5/C=C\CCCCC[C@H](NC(=O)OC5(C(F)(F)F)CCCC5)C(=O)N4C3)nc2c1` [NR02-60, 1-(Trifluoromethyl)cyclopentyl ((2R,6S,13aS,14aR,16aS,Z)-2-((7-methoxy-3-methylquinoxalin-2-yl)oxy)-14a-(((1-methylcyclopropyl)sulfonyl)carbamoyl)-5,16-dioxo-1,2,3,5,6,7,8,9,10,11,13a,14,14a,15,16,16a-hexadecahydrocyclopropa[e]pyrrolo [1,2-a][1,4]diazacyclopentadecin-6-yl)carbamate], the results for the inhibition constant Ki (in assay [2]; in assay [3]; at HCV NS3/4A protease GT3) were 8.1 ± 1.5 nM, 1.3 ± 0.2 nM and 104 ± 7 nM, respectively.

Turning to `COc1ccc2nc(C)c(O[C@@H]3C[C@H]4C(=O)N[C@]5(C(=O)NS(=O)(=O)C6(C)CC6)C[C@H]5/C=C\CCCCC[C@H](NC(=O)OC5(C)CCCC5)C(=O)N4C3)nc2c1` [AJ-74, 1-Methylcyclopentyl ((2R,6S,13aS,14aR,16aS, Z)-2-((7-methoxy-3-methylquinoxalin-2-yl)oxy)-14a-(((1-methylcyclopropyl)sulfonyl)carbamoyl)-5,16-dioxo-1,2,3,5,6,7,8,9,10,11,13a,14,14a,15,16,16a-hexadecahydrocyclopropa[e]pyrrolo[1,2-a][1,4]diazacyclopentadecin-6-yl) carbamate], the “Fold Change of D168A Ki” value in assay [1] was “(9) fold”. Moreover, the Ki in assay [2] is 16 ± 1.2 nM; in assay [3], 1.78 ± 0.3 nM; on HCV NS3/4A protease GT3 it was 151 ± 11 nM.

On to `COc1ccc2nc(C(F)(F)F)c(O[C@@H]3C[C@H]4C(=O)N[C@]5(C(=O)NS(=O)(=O)C6(C)CC6)C[C@H]5/C=C\CCCCC[C@H](NC(=O)OCC5(C)CC5(F)F)C(=O)N4C3)nc2c1` (stereo partly drawn) [NR02-56, (2,2-Difluoro-1-methylcyclopropyl)methyl ((2R,6S,13aS,14aR,16aS,Z)-2-((7-methoxy-3-(trifluoromethyl)quinoxalin-2-yl)oxy)-14a-(((1-methylcyclopropyl)sulfonyl)carbamoyl)-5,16-dioxo-1,2,3,5,6,7,8,9,10,11,13a,14,14a,15,16,16a-hexadecahydrocyclopropa[e]pyrrolo[1,2-a][1,4]diazacyclopentadecin-6-yl)carbamate], for which the Ki in assay [2] turned out to be 7.1 ± 0.9 nM; in assay [3], 2.1 ± 0.5 nM; on HCV NS3/4A protease GT3 it was 336 ± 47 nM.

In the case of `COc1ccc2nc(C)c(O[C@@H]3C[C@H]4C(=O)N[C@]5(C(=O)NS(=O)(=O)C6(C)CC6)C[C@H]5/C=C\CCCCC[C@H](NC(=O)OC5(C(F)(F)F)CCC5)C(=O)N4C3)nc2c1` [NR02-58, 1-(Trifluoromethyl)cyclobutyl ((2R,6S,13aS,14aR,16aS,Z)-2-((7-methoxy-3-methylquinoxalin-2-yl)oxy)-14a-(((1-methylcyclopropyl)sulfonyl)carbamoyl)-5,16-dioxo-1,2,3,5,6,7,8,9,10,11,13a,14,14a,15,16,16a-hexadecahydrocyclopropa[e]pyrrolo[1,2-a][1,4]diazacyclopentadecin-6-yl)carbamate], the Ki in assay [2] is 11.3 ± 2 nM; in assay [3] it was 1.5 ± 0.2 nM; on HCV NS3/4A protease GT3, 96 ± 17 nM.

As for `COc1ccc2nc(C)c(O[C@@H]3C[C@H]4C(=O)N[C@]5(C(=O)NS(=O)(=O)C6(C)CC6)C[C@H]5/C=C\CCCCC[C@H](NC(=O)OCC5(C)CC5(F)F)C(=O)N4C3)nc2c1` (stereo partly drawn) [NR02-55, (2,2-Difluoro-1-methylcyclopropyl)methyl ((2R,6S,13aS,14aR,16aS,Z)-2-((7-methoxy-3-methylquinoxalin-2-yl)oxy)-14a-(((1-methylcyclopropyl)sulfonyl)carbamoyl)-5,16-dioxo-1,2,3,5,6,7,8,9,10,11,13a,14,14a,15,16,16a-hexadecahydrocyclopropa[e]pyrrolo[1,2-a][1,4]diazacyclopentadecin-6-yl)carbamate], the figures for the Ki (in assay [2]; in assay [3]; on HCV NS3/4A protease GT3) were 4.7 ± 0.5 nM, 3.1 ± 0.3 nM and 100 ± 12 nM, respectively.

Regarding `COc1ccc2nc(C(F)(F)F)c(O[C@@H]3C[C@H]4C(=O)N[C@]5(C(=O)NS(=O)(=O)C6(C)CC6)C[C@H]5/C=C\CCCCC[C@H](NC(=O)OC5(C(F)(F)F)CCCC5)C(=O)N4C3)nc2c1` [NR04-01, 1-(Trifluoromethyl)cyclopentyl ((2R,6S,13aS,14aR,16aS,Z)-2-((7-methoxy-3-(trifluoromethyl)quinoxalin-2-yl)oxy)-14a-(((1-methylcyclopropyl)sulfonyl)carbamoyl)-5,16-dioxo-1,2,3,5,6,7,8,9,10,11,13a,14,14a,15,16,16a-hexadecahydrocyclopropa[e]pyrrolo[1,2-a][1,4]diazacyclopentadecin-6-yl)carbamate], the Ki in assay [2] worked out at 20.4 ± 0.9 nM; in assay [3] it was 5.66 ± 0.5 nM; at HCV NS3/4A protease GT3 it was 414 ± 23 nM.
